This note sets out measurements from patent US8921398B2 (Boehringer Ingelheim International GmbH, priority 2011, dated 2014).

As usually defined, the EC50 is the concentration at which the effect is half-maximal.

For the assay, the target named is T1, mutant form of the human GPR119 receptor (Homo sapiens, UniProt Q8TDV5, S329A/T327A).
T1 construct: expressed in transfected cells
T1 sequence (Q8TDV5 with tags, fused parts or gaps T327A/S329A): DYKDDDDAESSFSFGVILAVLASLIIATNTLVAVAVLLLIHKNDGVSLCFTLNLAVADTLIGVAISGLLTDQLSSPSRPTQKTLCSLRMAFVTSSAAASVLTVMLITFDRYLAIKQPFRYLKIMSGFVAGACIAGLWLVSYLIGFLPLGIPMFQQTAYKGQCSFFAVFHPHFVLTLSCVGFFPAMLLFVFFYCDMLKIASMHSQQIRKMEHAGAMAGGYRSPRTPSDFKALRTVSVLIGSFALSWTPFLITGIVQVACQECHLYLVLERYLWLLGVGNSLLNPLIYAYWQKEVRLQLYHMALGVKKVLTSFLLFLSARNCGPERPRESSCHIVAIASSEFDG
Description: LANCE cAMP-384 assay in HEK293 cells stably expressing a mutant form of the human GPR119 receptor. Type of assay: cell-based. The following applies: cAMP accumulation, GPR119 stable HEK293 cells, LANCE kit, 20 min at 37° C. The procedure:
Quantitative detection of cAMP accumulation from cells expressing human GPR119 receptor is achieved using Perkin Elmer's LANCE cAMP-384 Kit (Cat#AD0264) according to the manufacturer's protocol. Briefly, HEK293 cells stably expressing a mutant form of the human GPR119 receptor as assay tool (Methionine 1 replaced with the amino acid sequence […], and T327 & S329 changed to alanines; SEQ ID No. 1) are grown to 50-70% confluency in cell culture media (DMEM, 10% heat inactivated Fetal Bovine Serum, 50 I.U./mL penicillin, 50 μg/mL streptomycin, 10 mM HEPES, 20 μg/mL G418 Sulfate). On the day of the assay, GPR119 stable HEK293 cells are lifted from the tissue culture plate and 1000 cells/well are incubated along with various concentrations of test compounds for 20 min at 37° C. Detection Buffer (50 mM HEPES, 10 mM calcium chloride, 0.35% Triton X-100, 1 mg/mL BSA) containing cAMP-specific antibody is then added to all wells and allowed to equilibrate in the dark for 10 minutes at room temperature. Upon equilibration, Detection Buffer containing europium-labeled cAMP tracer complex is added to all wells and allowed to react for 1 hour at room temperature. After 1 hour, bound europium-labeled cAMP tracer is measured using a Perkin Elmer Envision plate reader. The quantity of cAMP generated in each well is derived from a standard curve. EC50 is determined using nonlinear regression analysis of the cAMP values over a range of agonist concentration (12 points spanning the range from 30 μM to 100 pM).
`Cc1ncnn1-c1ccc(C(=O)N(C2CC2)[C@H]2CCN(c3ccc(C(F)(F)F)cn3)C[C@H]2F)cn1` (single isomer, unassigned) [Example 69] had an EC50 of 496 nM.

The compound `Cc1nnnn1-c1ccc(C(=O)N(C2CC2)[C@H]2CCN(c3ccc(C(F)(F)F)cn3)C[C@H]2F)cn1` (single isomer, unassigned) [Example 70] yielded an EC50 of 127 nM.

Regarding `O=C(c1cnc(-n2cncn2)cn1)N(C1CC1)[C@H]1CCN(c2ccc(C(F)(F)F)cn2)C[C@H]1F` (single isomer, unassigned) [Example 71], the concentration for a half-maximal effect (EC50) is 94 nM.

For the compound `Cc1nccn1-c1ncc(C(=O)N(C2CC2)[C@H]2CCN(c3ccc(C(F)(F)F)cn3)C[C@H]2F)cn1` (single isomer, unassigned) [Example 72], a half-maximal response (EC50) required 56 nM.

On to `Cc1nccn1-c1ccc(C(=O)N(C2CC2)[C@H]2CCN(c3ccc(C(F)(F)F)cn3)C[C@H]2F)cn1` (single isomer, unassigned) [Example 73], for which the EC50 came to 391 nM.

With `Cc1ncn(-c2cnc(C(=O)N(C3CC3)[C@H]3CCN(c4ccc(C(F)(F)F)cn4)C[C@H]3F)cn2)n1` (single isomer, unassigned) [Example 74], the concentration for a half-maximal effect (EC50) is 411 nM.

As to `Cc1nccn1-c1cnc(C(=O)N(C2CC2)[C@H]2CCN(c3ccc(C(F)(F)F)cn3)C[C@H]2F)cn1` (single isomer, unassigned) [Example 75], the concentration giving a half-maximal response (EC50) worked out at 341 nM.

Compound `Cc1ncnn1-c1ccc(C(=O)N(C2CC2)[C@@H]2CCN(c3ccc(C(F)(F)F)cn3)C[C@@H]2F)cn1` (single isomer, unassigned) [Example 76] came in with an EC50 of 46 nM.

With `Cc1nnnn1-c1ccc(C(=O)N(C2CC2)[C@@H]2CCN(c3ccc(C(F)(F)F)cn3)C[C@@H]2F)cn1` (single isomer, unassigned) [Example 77], the EC50 amounted to 13 nM.

The compound `O=C(c1cnc(-n2cncn2)cn1)N(C1CC1)[C@@H]1CCN(c2ccc(C(F)(F)F)cn2)C[C@@H]1F` (single isomer, unassigned) [Example 78] showed an EC50 of 9 nM.

In the case of `O=C(c1cnc(-n2cncn2)nc1)N(C1CC1)[C@@H]1CCN(c2ccc(C(F)(F)F)cn2)C[C@@H]1F` (single isomer, unassigned) [Example 80], the EC50 came to 111 nM.

For `Cc1nccn1-c1ccc(C(=O)N(C2CC2)[C@@H]2CCN(c3ccc(C(F)(F)F)cn3)C[C@@H]2F)cn1` (single isomer, unassigned) [Example 81], the half-maximal effective concentration (EC50) was 34 nM.

Regarding `Cc1ncn(-c2cnc(C(=O)N(C3CC3)[C@@H]3CCN(c4ccc(C(F)(F)F)cn4)C[C@@H]3F)cn2)n1` (single isomer, unassigned) [Example 82], the EC50 was found to be 35 nM.

Regarding `Cc1nccn1-c1cnc(C(=O)N(C2CC2)[C@@H]2CCN(c3ccc(C(F)(F)F)cn3)C[C@@H]2F)cn1` (single isomer, unassigned) [Example 83], a half-maximal effect (EC50) was put at 12 nM.

For the compound `CCc1cnc(N2CC[C@@H](N(C(=O)c3ccc(-n4ncnc4C)nc3)C3CC3)[C@@H](F)C2)nc1` (single isomer, unassigned) [Example 84], the EC50 amounted to 15 nM.

As to `CCc1cnc(N2CC[C@@H](N(C(=O)c3ccc(-n4nnnc4C)nc3)C3CC3)[C@@H](F)C2)nc1` (single isomer, unassigned) [Example 85], the EC50 was 20 nM.

With `CCc1cnc(N2CC[C@@H](N(C(=O)c3cnc(-n4cncn4)cn3)C3CC3)[C@@H](F)C2)nc1` (single isomer, unassigned) [Example 86], the midpoint of the response, the EC50, lay at 5 nM.

`CCc1cnc(N2CC[C@@H](N(C(=O)c3cnc(-n4ccnc4C)nc3)C3CC3)[C@@H](F)C2)nc1` (single isomer, unassigned) [Example 87] yielded a concentration for a half-maximal effect (EC50) of 4 nM.

`CCc1cnc(N2CC[C@@H](N(C(=O)c3ccc(-n4ccnc4C)nc3)C3CC3)[C@@H](F)C2)nc1` (single isomer, unassigned) [Example 88] yielded an EC50 of 29 nM.

Take `CCc1cnc(N2CC[C@@H](N(C(=O)c3cnc(-n4cnc(C)n4)cn3)C3CC3)[C@@H](F)C2)nc1` (single isomer, unassigned) [Example 89]: the 50% effective concentration (EC50) is 18 nM.
